Values after ≈ are worked out from the molar mass of the structure shown.
Assay: physchem
Details: fassgf or other biorelevant

| solubility | SMILES |
| --- | --- |
| > 308 µg/mL | CCC(=O)OCCn1c2c(c3ccccc31)CCN1C(=O)c3ccccc3N(C)C21 (stereo not drawn) [2-21, N13-(2-Propionyloxyethyl)evodiamine] |
| 265 µg/mL (≈ 657 µM) | CCOC(=O)CCn1c2c(c3ccccc31)CCN1C(=O)c3ccccc3N(C)C21 (stereo not drawn) [2-22, N13-(2-(Ethoxycarbonyl)ethyl)evodiamine] |
| 71.9 µg/mL (≈ 172 µM) | CCOC(=O)CCCn1c2c(c3ccccc31)CCN1C(=O)c3ccccc3N(C)C21 (stereo not drawn) [2-23, N13-(3-(Ethoxycarbonyl)propyl)evodiamine] |
| 55.7 µg/mL (≈ 155 µM) | CN1c2ccccc2C(=O)N2CCc3c(n(CC4CO4)c4ccccc34)C21 (stereo not drawn) [2-24, N13-((Oxiran-2-yl)methyl)evodiamine] |
| 132 µg/mL (≈ 292 µM) | CN1c2ccccc2C(=O)N2CCc3c(n(CCCCCBr)c4ccccc34)C21 (stereo not drawn) [2-26, N13-(5-Bromopentyl)evodiamine] |
| 132 µg/mL (≈ 326 µM) | CCCOC(=O)Cn1c2c(c3ccccc31)CCN1C(=O)c3ccccc3N(C)C21 (stereo not drawn) [2-27, N13-(Propoxycarbonylmethyl)evodiamine] |
| 166 µg/mL (≈ 384 µM) | CCOC(=O)CCCCn1c2c(c3ccccc31)CCN1C(=O)c3ccccc3N(C)C21 (stereo not drawn) [2-28, N13-(4-(Ethoxycarbonyl)butyl)evodiamine] |
| > 350 µg/mL | CN1c2ccccc2C(=O)N2CCc3c(n(CCCCCn4c5c(c6ccccc64)CCN4C(=O)c6ccccc6N(C)C54)c4ccccc34)C21 (stereo not drawn) [3-1, 1,5-Bis-(evodiamin-N13-yl)pentane] |
| > 320 µg/mL | CN1c2ccccc2C(=O)N2CCc3c(n(CCCCCCn4c5c(c6ccccc64)CCN4C(=O)c6ccccc6N(C)C54)c4ccccc34)C21 (stereo not drawn) [3-2, N1,6-Bis-(evodiamin-N13-yl)hexane] |
| 320 µg/mL (≈ 921 µM) | CN1c2ccccc2C(=O)N2CCc3c(n(CCO)c4ccccc34)C21 (stereo not drawn) [4-1, N13-(2-Hyroxyethyl)evodiamine] |
| 167 µg/mL (≈ 463 µM) | CN1c2ccccc2C(=O)N2CCc3c(n(CC=NO)c4ccccc34)C21 (stereo not drawn) [6-1, 2-(Evodiamin-N13-yl)acetaldehyde oxime] |
| 160 µg/mL (≈ 428 µM) | CON=CCn1c2c(c3ccccc31)CCN1C(=O)c3ccccc3N(C)C21 (stereo not drawn) [6-2, 2-(Evodiamin-N13-yl)acetaldehyde O-methyl oxime] |
| 154 µg/mL (≈ 395 µM) | CN1c2ccccc2C(=O)N2CCc3c(n(CCCC(=O)O)c4ccccc34)C21 (stereo not drawn) [compound 5, 4-(Evodiamin-N13-yl)butyric acid] |
| 174 µg/mL (≈ 503 µM) | CN1c2ccccc2C(=O)N2CCc3c(n(CC=O)c4ccccc34)C21 (stereo not drawn) [compound 6, 2-(Evodiamin-N13-yl)acetaldehyde] |

| SMILES | solubility |
| --- | --- |
| CC(=O)OCCCn1c2c(c3ccccc31)CCN1C(=O)c3ccccc3N(C)C21 (stereo not drawn) [2-20, N13-(3-Acetoxypropyl)evodiamine] | 278 µg/mL (≈ 689 µM) |

Assay: physchem
Details: simulated gastric fluid

| solubility | SMILES |
| --- | --- |
| > 120 µg/mL | CCC(=O)OCCn1c2c(c3ccccc31)CCN1C(=O)c3ccccc3N(C)C21 (stereo not drawn) [2-21, N13-(2-Propionyloxyethyl)evodiamine] |
| > 120 µg/mL | CCOC(=O)CCn1c2c(c3ccccc31)CCN1C(=O)c3ccccc3N(C)C21 (stereo not drawn) [2-22, N13-(2-(Ethoxycarbonyl)ethyl)evodiamine] |
| 30 µg/mL (≈ 71.9 µM) | CCOC(=O)CCCn1c2c(c3ccccc31)CCN1C(=O)c3ccccc3N(C)C21 (stereo not drawn) [2-23, N13-(3-(Ethoxycarbonyl)propyl)evodiamine] |
| 20 µg/mL (≈ 55.6 µM) | CN1c2ccccc2C(=O)N2CCc3c(n(CC4CO4)c4ccccc34)C21 (stereo not drawn) [2-24, N13-((Oxiran-2-yl)methyl)evodiamine] |
| 67.8 µg/mL (≈ 150 µM) | CN1c2ccccc2C(=O)N2CCc3c(n(CCCCCBr)c4ccccc34)C21 (stereo not drawn) [2-26, N13-(5-Bromopentyl)evodiamine] |
| 72.9 µg/mL (≈ 181 µM) | CCCOC(=O)Cn1c2c(c3ccccc31)CCN1C(=O)c3ccccc3N(C)C21 (stereo not drawn) [2-27, N13-(Propoxycarbonylmethyl)evodiamine] |
| 89.4 µg/mL (≈ 207 µM) | CCOC(=O)CCCCn1c2c(c3ccccc31)CCN1C(=O)c3ccccc3N(C)C21 (stereo not drawn) [2-28, N13-(4-(Ethoxycarbonyl)butyl)evodiamine] |
| > 120 µg/mL | CN1c2ccccc2C(=O)N2CCc3c(n(CCCCCn4c5c(c6ccccc64)CCN4C(=O)c6ccccc6N(C)C54)c4ccccc34)C21 (stereo not drawn) [3-1, 1,5-Bis-(evodiamin-N13-yl)pentane] |
| > 120 µg/mL | CN1c2ccccc2C(=O)N2CCc3c(n(CCCCCCn4c5c(c6ccccc64)CCN4C(=O)c6ccccc6N(C)C54)c4ccccc34)C21 (stereo not drawn) [3-2, N1,6-Bis-(evodiamin-N13-yl)hexane] |
| > 220 µg/mL | CN1c2ccccc2C(=O)N2CCc3c(n(CCO)c4ccccc34)C21 (stereo not drawn) [4-1, N13-(2-Hyroxyethyl)evodiamine] |
| 60 µg/mL (≈ 166 µM) | CN1c2ccccc2C(=O)N2CCc3c(n(CC=NO)c4ccccc34)C21 (stereo not drawn) [6-1, 2-(Evodiamin-N13-yl)acetaldehyde oxime] |
| 60 µg/mL (≈ 160 µM) | CON=CCn1c2c(c3ccccc31)CCN1C(=O)c3ccccc3N(C)C21 (stereo not drawn) [6-2, 2-(Evodiamin-N13-yl)acetaldehyde O-methyl oxime] |
| 60 µg/mL (≈ 154 µM) | CN1c2ccccc2C(=O)N2CCc3c(n(CCCC(=O)O)c4ccccc34)C21 (stereo not drawn) [compound 5, 4-(Evodiamin-N13-yl)butyric acid] |
| 60 µg/mL (≈ 174 µM) | CN1c2ccccc2C(=O)N2CCc3c(n(CC=O)c4ccccc34)C21 (stereo not drawn) [compound 6, 2-(Evodiamin-N13-yl)acetaldehyde] |

| SMILES | solubility |
| --- | --- |
| CC(=O)OCCCn1c2c(c3ccccc31)CCN1C(=O)c3ccccc3N(C)C21 (stereo not drawn) [2-20, N13-(3-Acetoxypropyl)evodiamine] | > 120 µg/mL |

Assay: not given
Details: not given

| melting point | SMILES |
| --- | --- |
| 130 to 132 °C | CN1c2ccccc2C(=O)N2CCc3c(n(CCCBr)c4ccccc34)C21 (stereo not drawn) |
| 126 to 128 °C | CN1c2ccccc2C(=O)N2CCc3c(n(CCOCCOCCCl)c4ccccc34)C21 (stereo not drawn) |
| 205 to 206 °C | CCC(=O)OCCn1c2c(c3ccccc31)CCN1C(=O)c3ccccc3N(C)C21 (stereo not drawn) [2-21, N13-(2-Propionyloxyethyl)evodiamine] |
| 265 to 268 °C | CCOC(=O)CCCn1c2c(c3ccccc31)CCN1C(=O)c3ccccc3N(C)C21 (stereo not drawn) [2-23, N13-(3-(Ethoxycarbonyl)propyl)evodiamine] |
| 189 to 191 °C | CN1c2ccccc2C(=O)N2CCc3c(n(CC4CO4)c4ccccc34)C21 (stereo not drawn) [2-24, N13-((Oxiran-2-yl)methyl)evodiamine] |
| 168 to 170 °C | CCCOC(=O)Cn1c2c(c3ccccc31)CCN1C(=O)c3ccccc3N(C)C21 (stereo not drawn) [2-27, N13-(Propoxycarbonylmethyl)evodiamine] |
| 251 to 253 °C | CCOC(=O)CCCCn1c2c(c3ccccc31)CCN1C(=O)c3ccccc3N(C)C21 (stereo not drawn) [2-28, N13-(4-(Ethoxycarbonyl)butyl)evodiamine] |
| 217 to 219 °C | CN1c2ccccc2C(=O)N2CCc3c(n(CCCCCn4c5c(c6ccccc64)CCN4C(=O)c6ccccc6N(C)C54)c4ccccc34)C21 (stereo not drawn) [3-1, 1,5-Bis-(evodiamin-N13-yl)pentane] |
| 131 to 133 °C | CN1c2ccccc2C(=O)N2CCc3c(n(CCCCCCn4c5c(c6ccccc64)CCN4C(=O)c6ccccc6N(C)C54)c4ccccc34)C21 (stereo not drawn) [3-2, N1,6-Bis-(evodiamin-N13-yl)hexane] |
| 166 to 168 °C | CN1c2ccccc2C(=O)N2CCc3c(n(CCO)c4ccccc34)C21 (stereo not drawn) [4-1, N13-(2-Hyroxyethyl)evodiamine] |
| 216 °C (dec.) | CON=CCn1c2c(c3ccccc31)CCN1C(=O)c3ccccc3N(C)C21 (stereo not drawn) [6-2, 2-(Evodiamin-N13-yl)acetaldehyde O-methyl oxime] |
| 234 °C (dec.) | CN1c2ccccc2C(=O)N2CCc3c(n(CCCC(=O)O)c4ccccc34)C21 (stereo not drawn) [compound 5, 4-(Evodiamin-N13-yl)butyric acid] |

— paper PMC6270516 (Molecules, 2013)
